Columns and labels:
[1] = system: surface GluA1 (AMPAR) in hippocampal neurons; experiment: Aβ-induced AMPAR endocytosis: surface GluA1 in cultured hippocampal neurons; assay type: cell-based, rat; conditions: for GluA1 surface expression (GluA1 puncta normalized to SV2 puncta and to naïve cultures): 2 hrs, naïve 100%±4%, n=3
Method: A. Micrograph showing GluA2 surface expression upon Aβ treatment in the presence or absence of Nutlin-3. Rat hippocampal neurons were cultured, and treated with Aβ or Aβ together with either Nutlin-3 (5 μM) or HLI373 (15 μM) for 2 hours. The final concentration of Aβ was 0.3 ng/mL. Naïve and Nutlin-3 and HLI373 treatments, without Aβ treatment, were used as controls. Surface expression of AMPARs was measured by labeling the cultured neurons in vivo with an antibody to the AMPAR subunit GluA1, followed by confocal microscopy and immunofluorescence quantification by MetaMorph. The number of GluA1 puncta was normalized to SV2 puncta (a presynaptic marker) and to the value in control naïve cultures. […] Scale bar=5 μm. B. Bar graph showing quantification of the percentage of surface GluA1 in response to the various treatment described in A. Results are presented as mean±SEM.
Soluble amyloid beta (Aβ) peptides contribute directly to synapse loss and decreased dendritic spine density and glutamate receptors at the synapse. Moreover, Aβ has been reported to induce AMPAR internalization in cultured neurons. To evaluate the effect of Mdm2 inhibitors on this process, cultured rat hippocampal neurons were treated for 2 hrs with Aβ (or Aβ together with either Nutlin-3 (5 μM) or HLI-373 (15 μM). Aβ can be prepared from 7PA2 Chinese hamster ovary (CHO) cells stably expressing human amyloid precursor protein (APP)751 containing the V717 mutation (Walsh et al., 2005; Shankar et al., 2007; Shankar et al., 2011), and is also available commercially from, e.g., rPeptide (Bogart, G A). The concentration of Aβ in the hippocampal cultures was 0.3 ng/mL. Naïve and Nutlin-3 and HLI-373 treatments were used as controls. Surface expression of AMPARs was measured by labeling the cultured neurons in vivo with an antibody to the AMPAR subunit GluA1, followed by confocal microscopy and immunofluorescence quantification by MetaMorph. The number of GluA1 puncta was normalized to SV2 puncta (a presynaptic marker) and to the value in control naïve cultures (see FIGS. 8A and B).
Minimum inhibitor concentrations of Nutlin-3a or HLI-373, as well as any other Mdm2 inhibitor identified using the screens described supra, can be readily determined by using different ranges of inhibitor concentrations and assessing the effects of the particular concentrations on surface expression of AMPARs. Similar results are expected with other inhibitors of PSD-95 ubiquitination by Mdm2, such as PSD-95 inhibitors.

[2] = oral gavage, 100 mg/kg once daily; between 1-8 hours after administration (Zhang et al., 2011); cited from earlier work
[3] = system: surface GluA2 (AMPAR) in hippocampal neurons; experiment: NMDA-induced AMPAR endocytosis: surface GluA2 by antibody feeding in hippocampal cultures; assay type: cell-based, rat; conditions: inhibitor 5 μM for 30 min before NMDA 100 μM for 3 min, then 15 min; naïve 100%±9.47%; n=3
Method: A. Micrograph showing GluA2 surface expression upon NMDA treatment in the presence or absence of Nutlin-3. Cultured hippocampal neurons were subjected to an antibody feeding protocol using an antibody that recognizes an extracellular domain of GluA2. The neurons were subsequently pretreated with Nutlin-3 (5 μM for 30 min) prior to NMDA treatment (100 μM for 3 min), followed by agonist washout. Neurons were incubated for an additional 15 min (with or without Nutlin-3) before immunocytochemical analysis of PSD-95 and surface GluA2 by confocal microscopy.
B. A bar graph depicting the proportion of GluA2 found at the surface of cultured hippocampal neurons upon treatment with or without NMDA, in the presence or absence of Nutlin-3. Results are presented as mean±SEM.
Brief stimulation of NMDARs induces AMPAR endocytosis in cultured neurons (Colledge et al., 2003; Bhattacharyya et al., 2009). To determine whether Nutlin-3a antagonizes NMDA-induced AMPAR endocytosis, measured as loss of surface AMPAR staining, the surface expression of GluA2 (a subunit of AMPARs in rat hippocampal cultures) was assessed. Surface GluA2 were labeled in vivo by an antibody feeding protocol using an antibody that recognizes an extracellular domain of GluA2 (Ehlers, 2000; Lin et al., 2000; Bhattacharyya et al., 2009). Neurons were pretreated with Nutlin-3a (5 μM for 30 min) prior to NMDA treatment. After brief stimulation with NMDA (100 μM for 3 min) and agonist washout, neurons were incubated for an additional 15 min (with or without Nutlin-3a) before immunocytochemical analysis of PSD-95 and surface GluA2 by confocal microscopy under the same settings. Immunostained puncta were quantified using MetaMorph software (3 neurons from 2 coverslips with approximately 450 puncta analyzed/condition) and the number of GluA2 puncta was normalized to the number of PSD-95 puncta.
Naïve and NMDA-stimulated conditions were used as controls. […]

[4] = biological target: T1, interaction between PSD-95 and Mdm2 (Mus musculus, UniProt P23804); experiment: Mdm2 binding to PSD-95 in acute forebrain slices (Mdm2 immunoprecipitation, PSD-95 Western blot); assay type: cell-based; conditions: Nutlin-3 5 μM for 30 min, normalized to absence of Nutlin-3
T1 construct: from tissue; host or cells: acute mouse forebrain slices
T1 sequence (P23804 whole entry): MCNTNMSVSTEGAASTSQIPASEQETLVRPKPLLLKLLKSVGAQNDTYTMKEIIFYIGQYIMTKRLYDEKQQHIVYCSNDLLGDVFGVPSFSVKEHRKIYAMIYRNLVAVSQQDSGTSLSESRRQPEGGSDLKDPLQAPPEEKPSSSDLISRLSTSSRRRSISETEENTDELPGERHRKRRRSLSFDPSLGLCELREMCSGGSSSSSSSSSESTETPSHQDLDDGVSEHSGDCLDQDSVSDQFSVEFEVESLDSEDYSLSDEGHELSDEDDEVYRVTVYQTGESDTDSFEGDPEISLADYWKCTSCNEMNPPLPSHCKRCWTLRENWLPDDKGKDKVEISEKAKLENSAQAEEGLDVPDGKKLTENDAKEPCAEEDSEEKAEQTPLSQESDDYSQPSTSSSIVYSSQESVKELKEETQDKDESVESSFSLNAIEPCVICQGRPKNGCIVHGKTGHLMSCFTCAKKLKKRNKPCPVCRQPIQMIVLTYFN
Method: A. Immunoblot showing the interaction between Mdm2 and PSD-95 in the presence or absence of the Mdm2 inhibitor Nutlin-3. Acute mouse forebrain slices were treated with Nutlin-3 (5 μM for 30 min), followed by immunoprecipitation of Mdm2. Immunoprecipitates were subjected to Western blot analysis with anti-PSD-95 and anti-Mdm2 antibodies. IgG: control immunoprecipitation with mouse IgG.
B. A bar graph depicting the proportion of PSD-95 bound to Mdm2 from FIG. 6A, normalized to levels of PSD-95 bound to Mdm2 in the absence of Nutlin-3. There was a 60% decrease in the interaction of PSD-95 with Mdm2.
To test this hypothesis, acute mouse forebrain slices were prepared and subjected to treatment with or without Nutlin-3. The interaction between PSD95 and Mdm2 was assessed by immunoprecipitation of Mdm2, followed by Western blot analysis to assess the extent of PSD-95 binding. Consistent with PSD-95 binding to the same region of Mdm2 as other Mdm2 substrates, Nutlin-3 decreased the interaction between PSD-95 with Mdm2 by 60% (FIGS. 6A and B).

| Structure (SMILES) | GluA1 surface expression (GluA1 puncta normalized to SV2 puncta and to naïve cultures) ([1]; co-treatment with Aβ 0.3 ng/mL, Nutlin 5 μM, HLI373 15 μM) | concentration in brain tissue [2] [nM] | effect on loss of surface GluA1 induced by Aβ ([1]; Aβ 0.3 ng/mL, 2 hours, Nutlin-3 5 μM, HLI373 15 μM) | GluA1 surface expression (GluA1 puncta normalized to SV2 puncta and to naïve cultures) ([1]; inhibitor alone, without Aβ, Nutlin-3 5 μM, HLI-373 15 μM) | GluA2 surface expression (GluA2 puncta normalized to PSD-95 puncta, versus naïve control) [3] [%] | decrease in the interaction of PSD-95 with Mdm2 [4] [%] |
| --- | --- | --- | --- | --- | --- | --- |
| COc1ccc(C2=NC(c3ccc(Cl)cc3)C(c3ccc(Cl)cc3)N2C(=O)N2CCNC(=O)C2)c(OC(C)C)c1 (single isomer, unassigned; (-)) [Nutlin-3a, (−)-4-(4,5-bis(4-chlorophenyl)-2-(2-isopropoxy-4-methoxyphenyl)-4,5-dihydro-1H-imidazole-1-carbonyl)piperazin-2-one] | 152.29%±19.88% | 1000 to 2000 |  |  |  |  |
| COc1ccc(C2=N[C@@H](c3ccc(Cl)cc3)[C@@H](c3ccc(Cl)cc3)N2C(=O)N2CCNC(=O)C2)c(OC(C)C)c1 [Nutlin-3] |  |  | prevented the loss of surface GluA1 induced by Aβ treatment | 90.6%±3.71% | 60.86±3.98 | 60 |
